What all share (format): physicochemical
Data set [1] in a line: Effect of antioxidants: chemical stability by RP-HPLC (total impurities, Trp oxidation). The settings on record: refrigerated condition. Here is the method:
Solutions were filtered through […] PVDF filters. In a laminar flow hood, the solutions were filled into glass vials. Vials were capped, and stored at 5° C., 25° C. and 30° C. Four formulations comprising Compound 1 were prepared to evaluate the stabilization efficacy of antioxidants, namely, EDTA, citrate and methionine. […] Subsequently, a fifth sample containing higher concentration of methionine (100 mM vs. 10 mM) was prepared to evaluate the effect of methionine concentration (Table 15, Lot No. 26). Samples were prepared, and stored at 5° C., 25° C. and 30° C. for up to 3 months. At appropriate times, stability-indicating assays were performed to assess the physical and chemical stability.
At 25° C. and 30° C., there are significant differences in stabilization efficacy.

Data set [2] is described as follows: Solubility of Compound 1 at 25° C. between pH 5.0 and pH 7.0 (UV-Vis at 280 nm). On the procedure: All solutions comprised 10 mM tris (1.21 g/L) and 0.05% EDTA (0.5 g/L). The solution pH was titrated using either 1N hydrochloric acid or concentrated tris base stock solution.
The concentration of Compound 1 was measured at 280 nm by a UV-Vis spectrophotometer (SoloVPE). UV-Vis spectrophotometer is commonly used for quantification of proteins or peptides in solution. A characteristic UV absorption spectrum around 280 nm is predominately from the aromatic amino acids such as tryptophan (Trp, W) and tyrosine (Tyr, Y). When the molar extinction coefficient of the protein or peptide is known, the Beer-Lambert law is used to accurately quantitate amount of protein or peptide by UV absorbance, assuming the molecule contains no UV-absorbing non-proteinaceous components such as bound nucleotide cofactors, heme, or iron-sulfur centers. Compound 1 has tyrosine amino acid residues at positions 10 and 13 and has a tryptophan amino acid residue at position 25 and has an extinction coefficient of 1.86 mL·mg^−1·cm^−1 (as calculated by the Pace Method). Measuring the peptide concentration at different pH conditions by this method is appropriate for Compound 1.

The nature of data set [3]: Solution formulation feasibility study: covalent aggregates by SEC. The settings on record: pH values of 7.0-8.5. Here is the method:
Solutions were filtered through […] PVDF filters. In a laminar flow hood, the solutions were filled into glass vials. Vials were capped, and stored at 5° C., 25° C. and 30° C. Samples were withdrawn and submitted for testing as follows: (a) initial testing; (b) two weeks; and (c) one month. The formation of covalent aggregates was measured by size-exclusion chromatography (SEC).

Structures are written as SMILES. Values after ≈ are worked out from the molar mass of the structure shown. Where two headings read alike, the source gives them in different places.

Turning to `CC(C)C[C@H](NC(=O)[C@H](CC(C)C)NC(=O)[C@H](Cc1c[nH]c2ccccc12)NC(=O)[C@H](CCC(=O)O)NC(=O)[C@@H](NC(=O)[C@H](Cc1ccccc1)NC(=O)[C@H](CCC(=O)O)NC(=O)[C@H](CCCCNC(=O)COCCOCCNC(=O)COCCOCCNC(=O)CC[C@H](NC(=O)CCCCCCCCCCCCCCCCCCC(=O)O)C(=O)O)NC(=O)[C@H](C)NC(=O)[C@H](CCCCN)NC(=O)[C@H](CCCCN)NC(=O)[C@H](CCC(=O)O)NC(=O)[C@H](CC(=O)O)NC(=O)[C@H](CC(C)C)NC(=O)[C@H](Cc1ccc(O)cc1)NC(=O)[C@H](CCCCN)NC(=O)[C@H](CO)NC(=O)[C@H](Cc1ccc(O)cc1)NC(=O)[C@H](CC(=O)O)NC(=O)[C@H](CO)NC(=O)[C@@H](NC(=O)[C@H](Cc1ccccc1)NC(=O)[C@@H](NC(=O)CNC(=O)[C@H](CCC(N)=O)NC(=O)C(C)(C)NC(=O)[C@@H](N)Cc1c[nH]cn1)[C@@H](C)O)[C@@H](C)O)C(C)C)C(=O)N[C@@H](CCC(=O)O)C(=O)NCC(=O)NCC(=O)N1CCC[C@H]1C(=O)N[C@@H](CO)C(=O)N[C@@H](CO)C(=O)NCC(N)=O` [Compound 1], the “chemical degradation by RP-HPLC” value in data set [1] is given as “not substantial”. Besides, the solubility in data set [2] (10 mM tris buffer with 0.05% EDTA, aqueous buffer, Solution pH 6.16, 10 mM tris and 0.05% EDTA, 25° C., read-out: Compound 1 concentration in solution) is 14.5 mg/mL (≈ 3.19 mM); in data set [2] (10 mM tris buffer with 0.05% EDTA, aqueous buffer, Solution pH 6.84, 10 mM tris and 0.05% EDTA, 25° C., read-out: Compound 1 concentration in solution) it was 44.6 mg/mL (≈ 9.76 mM); in data set [2] (lower pH values (e.g. pH 5.0 to 6.5)), “sub-optimal solubility”. The “Compound 1 concentration in solution” value in data set [2] (Solution pH 5.31, 10 mM tris and 0.05% EDTA, 25° C.) was 0.00 mg/mL. Further, the “solubility (change with pH)” value in data set [2] (pH increased from 5.3 to 6.8) is reported as “increased significantly”. The “solubility by extrapolation of the data” value in data set [2] (pH values of 7.0 and above) is listed as “higher”. Moreover, in data set [3], the “stability in certain formulations” value is recorded as “sub-optimal stability”.

Source of the values: US20240299499A1, “Therapeutic Peptide Formulations” (Eli Lilly and Company, priority 2020, published 2024).
